Literature values, collected in patent publication US12616202B2, “Agricultural formulations, uses thereof and processes for preparation thereof” (priority 2018, dated 2026).

COCC(=O)N(c1c(C)cccc1C)C(C)C(=O)OC (stereo not shown) [metalaxyl, Metalaxyl]
water solubility: 8,400 parts per million
